Results taken from patent US20250281457A1, “TREATMENT OR PREVENTION OF DENGUE VIRAL INFECTION” (Janssen Pharmaceuticals, Inc., priority 2022, published 2025).
Where two headings read alike, the source gives them in different places.

Experiment: Plasma pharmacokinetics with loading dose and weekly or twice weekly maintenance dosing, fed (Example 5)
Type: in vivo, human
Conditions: human, plasma, oral; for Cmax: read-out: Mean Cmax (SD); for AUC: read-out: Mean AUCτ (SD); for AUC(0-inf): read-out: Mean AUC∞ (SD); for concentration at 72 h: read-out: Mean C72 h (SD)
Description: A pharmaceutical formulation comprising Compound (a) as described in Example 2 (SF2a/b) was administered as an oral dosage form, to healthy adult participants, in a fed state. Four dose regimens were applied: • Panel I (weekly dosing): 450 mg of Compound (a) twice a day (BID) for two days: on day 1 (D1) and on day 2 (D2) (loading dose); and then 900 mg once a week (Q7D), on day 3 (D3), day 10 (D10), day 17 (D17), and on day 24 (D24) (maintenance dose). • Panel II (biweekly dosing): 450 mg of Compound (a) twice a day (BID) for two days: on day 1 (D1) and on day 2 (D2); (loading dose) and then 450 mg once every 3 (Q3D) or 4 days (Q4D): on day 3 (D3), on day 6 (D6), on day 10 (D10), on day 13 (D13), on day 17 (D17), on day 20 (D20), on day 24 (D24), and on day 27 (D27), for a total of 900 mg each week administered through two doses of 450 mg each (maintenance dose). • Panel III (weekly dosing): 150 mg of Compound (a) twice a day (BID) for two days: on day 1 (D1) and on day 2 (D2) (loading dose); and then 300 mg once a week (Q7D): on day 3 (D3), day 10 (D10), day 17 (D17), and on day 24 (D24) (maintenance dose). • Panel IV (biweekly dosing): 150 mg of Compound (a) twice a day (BID) for two days: on day 1 (D1) and on day 2 (D2) (loading dose); and then 150 mg Q3D or Q4D: on day 3 (D3), on day 6 (D6), on day 10 (D10), on day 13 (D13), on day 17 (D17), on day 20 (D20), on day 24 (D24), and on day 27 (D27), for a total of 300 mg each week administered through two doses of 150 mg each (maintenance dose).
Oral dosage forms were administered together with approximately 240 mL of non-carbonated water under fed conditions, and were taken within 10 minutes after completion of normal standardized normal fat breakfast in the morning or after completion of normal standardized normal fat dinner in case of evening dosing. Intake of Compound (a) took place at around the same time each day. Intake of Compound (a) marked time 0 hours.
A standardized normal fat meal was served approximately 30 minutes before study drug intake. The standardized normal fat meal contained approximately 21 g of fat, 67 g of carbohydrates, 19 g of proteins resulting in around 533 kcal (an example meal is 4 slices of bread, 2 slices of ham or cheese, butter, jelly, and 1 or 2 cups (up to 355 mL) of decaffeinated coffee or tea with milk and/or sugar). The standardized normal fat meal was ingested entirely within 30 minutes or less. Within 10 minutes after completing the meal, but no more than 30 minutes after the start of the meal, study drug was administered. In case of Compound (a) intake in the evening, timing of standardized dinner was aligned to time of drug intake. […]
For Study Panel 1 only, additional whole blood samples were be collected on Days 1, 24, 25, 26, 38, 45, 51, and 59 using venipuncture. The whole blood samples were be used for the determination of Compound (a) whole blood concentrations and for determination of Compound (a) plasma concentrations. To determine Compound (a) venous whole blood concentrations, an aliquot of the whole blood sample was be pipetted onto the TASSO M-20 for better comparison with capillary whole blood samples collected by TASSO M-20. […]
Separation between metabolites and interfering endogenous compounds was achieved by injecting 2 μL sample extract onto an Acquity UPLC BEH C18 column (50×2.1 mm, 1.7 μm, Waters) at 50° C. and using 10 mM ammonium bicarbonate solution as mobile phase A, and methanol: acetonitrile (50:50, v/v) as mobile phase B. A gradient elution at a flow rate of 0.600 mL/min was applied using the following program: 35% B was increased to 90% B in 3 min, was further increased to 98% B at 3.01 min and held constant up to 4.00 min.
A Triple Quad 6500+ mass spectrometer (Sciex) equipped with a turbo ion spray source was used for analyte detection in positive ion mode using electrospray ionization. […]

[1] = 450 mg, Panel I (450 mg BID Days 1-2, then 900 mg Q7D; SF2a/b, fed), Day 2
[2] = 450 mg, Panel II (450 mg BID Days 1-2, then 450 mg Q3D/Q4D; SF2a/b, fed), Day 27
[3] = Panel I (450 mg BID Days 1-2, then 900 mg Q7D; SF2a/b, fed), Day 24
[4] = Panel II (450 mg BID Days 1-2, then 450 mg Q3D/Q4D; SF2a/b, fed), Day 2
[5] = Panel III (150 mg BID Days 1-2, then 300 mg Q7D; SF2a/b, fed), Day 24
[6] = Panel IV (150 mg BID Days 1-2, then 150 mg Q3D/Q4D; SF2a/b, fed), Day 2

COc1cc(NC(C(=O)c2c[nH]c3ccc(OC(F)(F)F)cc23)c2ccc(Cl)cc2OC)cc(S(C)(=O)=O)c1 (stereo not drawn) [Compound (a)]
Cmax (300 mg, Panel III (150 mg BID Days 1-2, then 300 mg Q7D; SF2a/b, fed), Day 3): 3100 ng/mL
Tmax (300 mg, Panel III (150 mg BID Days 1-2, then 300 mg Q7D; SF2a/b, fed), Day 3, read-out: Median tmax (min-max)): 5 h
AUC (450 mg, Panel I (450 mg BID Days 1-2, then 900 mg Q7D; SF2a/b, fed), Day 1): 17.5 µg·h/mL
Tmax (450 mg, Panel I (450 mg BID Days 1-2, then 900 mg Q7D; SF2a/b, fed), Day 1, read-out: Median tmax (min-max)): 7.5 h
AUC [1]: 46.5 µg·h/mL
Cmax [1]: 5080 ng/mL
Tmax (450 mg, Panel I (450 mg BID Days 1-2, then 900 mg Q7D; SF2a/b, fed), Day 2, read-out: Median tmax (min-max)): 5.5 h
Cmax (450 mg, Panel II (450 mg BID Days 1-2, then 450 mg Q3D/Q4D; SF2a/b, fed), Day 1): 1960 ng/mL
AUC(0-t) (450 mg, Panel II (450 mg BID Days 1-2, then 450 mg Q3D/Q4D; SF2a/b, fed), Day 3, read-out: Mean AUC24 h (SD)): 110 µg·h/mL
AUC(0-t) (450 mg, Panel II (450 mg BID Days 1-2, then 450 mg Q3D/Q4D; SF2a/b, fed), Day 3, read-out: Mean AUC72 h (SD)): 263 µg·h/mL
Cmax (450 mg, Panel II (450 mg BID Days 1-2, then 450 mg Q3D/Q4D; SF2a/b, fed), Day 3): 5950 ng/mL
Tmax (450 mg, Panel II (450 mg BID Days 1-2, then 450 mg Q3D/Q4D; SF2a/b, fed), Day 3, read-out: Median tmax (min-max)): 6.5 h
Cmax (450 mg, Panel II (450 mg BID Days 1-2, then 450 mg Q3D/Q4D; SF2a/b, fed), Day 6): 4380 ng/mL
Cmax (450 mg, Panel II (450 mg BID Days 1-2, then 450 mg Q3D/Q4D; SF2a/b, fed), Day 10): 4080 ng/mL
Cmax (450 mg, Panel II (450 mg BID Days 1-2, then 450 mg Q3D/Q4D; SF2a/b, fed), Day 13): 4070 ng/mL
Cmax (450 mg, Panel II (450 mg BID Days 1-2, then 450 mg Q3D/Q4D; SF2a/b, fed), Day 17): 3940 ng/mL
Cmax (450 mg, Panel II (450 mg BID Days 1-2, then 450 mg Q3D/Q4D; SF2a/b, fed), Day 20): 4060 ng/mL
Cmax (450 mg, Panel II (450 mg BID Days 1-2, then 450 mg Q3D/Q4D; SF2a/b, fed), Day 24): 3920 ng/mL
AUC(0-t) (450 mg, Panel II (450 mg BID Days 1-2, then 450 mg Q3D/Q4D; SF2a/b, fed), Day 27, read-out: Mean AUC24 h (SD)): 74.2 µg·h/mL
AUC(0-t) (450 mg, Panel II (450 mg BID Days 1-2, then 450 mg Q3D/Q4D; SF2a/b, fed), Day 27, read-out: Mean AUC72 h (SD)): 197 µg·h/mL
AUC(0-t) (450 mg, Panel II (450 mg BID Days 1-2, then 450 mg Q3D/Q4D; SF2a/b, fed), Day 27, read-out: Mean AUClast (SD)): 771 µg·h/mL
AUC(0-inf) [2]: 809 µg·h/mL
Cmax [2]: 3980 ng/mL
Tmax (450 mg, Panel II (450 mg BID Days 1-2, then 450 mg Q3D/Q4D; SF2a/b, fed), Day 27, read-out: Median tmax (min-max)): 6 h
AUC(0-t) (900 mg, Panel I (450 mg BID Days 1-2, then 900 mg Q7D; SF2a/b, fed), Day 3, read-out: Mean AUC24 h (SD)): 129 µg·h/mL
AUC(0-t) (900 mg, Panel I (450 mg BID Days 1-2, then 900 mg Q7D; SF2a/b, fed), Day 3, read-out: Mean AUC72 h (SD)): 318 µg·h/mL
Cmax (900 mg, Panel I (450 mg BID Days 1-2, then 900 mg Q7D; SF2a/b, fed), Day 3): 6560 ng/mL
Tmax (900 mg, Panel I (450 mg BID Days 1-2, then 900 mg Q7D; SF2a/b, fed), Day 3, read-out: Median tmax (min-max)): 5 h
Cmax (Panel I (450 mg BID Days 1-2, then 900 mg Q7D; SF2a/b, fed), Day 1): 2020 ng/mL
Cmax (Panel I (450 mg BID Days 1-2, then 900 mg Q7D; SF2a/b, fed), Day 10): 4240 ng/mL
Cmax (Panel I (450 mg BID Days 1-2, then 900 mg Q7D; SF2a/b, fed), Day 17): 4280 ng/mL
AUC(0-t) (Panel I (450 mg BID Days 1-2, then 900 mg Q7D; SF2a/b, fed), Day 24, read-out: Mean AUC24 h (SD)): 79.7 µg·h/mL
AUC(0-t) (Panel I (450 mg BID Days 1-2, then 900 mg Q7D; SF2a/b, fed), Day 24, read-out: Mean AUC72 h (SD)): 195 µg·h/mL
AUC(0-t) (Panel I (450 mg BID Days 1-2, then 900 mg Q7D; SF2a/b, fed), Day 24, read-out: Mean AUClast (SD)): 657 µg·h/mL
AUC(0-inf) [3]: 676 µg·h/mL
Cmax [3]: 4260 ng/mL
Tmax (Panel I (450 mg BID Days 1-2, then 900 mg Q7D; SF2a/b, fed), Day 24, read-out: Median tmax (min-max)): 6 h
AUC (Panel II (450 mg BID Days 1-2, then 450 mg Q3D/Q4D; SF2a/b, fed), Day 1): 15.5 µg·h/mL
Tmax (Panel II (450 mg BID Days 1-2, then 450 mg Q3D/Q4D; SF2a/b, fed), Day 1, read-out: Median tmax (min-max)): 5.5 h
AUC [4]: 44.9 µg·h/mL
Cmax [4]: 4640 ng/mL
Tmax (Panel II (450 mg BID Days 1-2, then 450 mg Q3D/Q4D; SF2a/b, fed), Day 2, read-out: tmax): 5 h
Cmax (Panel III (150 mg BID Days 1-2, then 300 mg Q7D; SF2a/b, fed), Day 1): 741 ng/mL
Cmax (Panel III (150 mg BID Days 1-2, then 300 mg Q7D; SF2a/b, fed), Day 10): 2180 ng/mL
Cmax (Panel III (150 mg BID Days 1-2, then 300 mg Q7D; SF2a/b, fed), Day 17): 2050 ng/mL
AUC(0-t) (Panel III (150 mg BID Days 1-2, then 300 mg Q7D; SF2a/b, fed), Day 24, read-out: Mean AUC24 h (SD)): 37.2 µg·h/mL
AUC(0-t) (Panel III (150 mg BID Days 1-2, then 300 mg Q7D; SF2a/b, fed), Day 24, read-out: Mean AUC72 h (SD)): 92.5 µg·h/mL
AUC(0-t) (Panel III (150 mg BID Days 1-2, then 300 mg Q7D; SF2a/b, fed), Day 24, read-out: Mean AUClast (SD)): 299 µg·h/mL
AUC(0-inf) [5]: 325 µg·h/mL
Cmax [5]: 2130 ng/mL
Tmax (Panel III (150 mg BID Days 1-2, then 300 mg Q7D; SF2a/b, fed), Day 24, read-out: Median tmax (min-max)): 7 h
AUC (Panel IV (150 mg BID Days 1-2, then 150 mg Q3D/Q4D; SF2a/b, fed), Day 1): 5.98 µg·h/mL
Tmax (Panel IV (150 mg BID Days 1-2, then 150 mg Q3D/Q4D; SF2a/b, fed), Day 1, read-out: Median tmax (min-max)): 5 h
AUC [6]: 15.8 µg·h/mL
Cmax [6]: 1600 ng/mL
Tmax (Panel IV (150 mg BID Days 1-2, then 150 mg Q3D/Q4D; SF2a/b, fed), Day 2, read-out: tmax): 5 h
concentration at 72 h (Panel I (450 mg BID Days 1-2, then 900 mg Q7D; SF2a/b, fed), Day 3): 3440 ng/mL
concentration at 72 h (Panel II (450 mg BID Days 1-2, then 450 mg Q3D/Q4D; SF2a/b, fed), Day 3): 2710 ng/mL
concentration at 72 h (Panel III (150 mg BID Days 1-2, then 300 mg Q7D; SF2a/b, fed), Day 3): 1210 ng/mL
concentration at 72 h (Panel IV (150 mg BID Days 1-2, then 150 mg Q3D/Q4D; SF2a/b, fed), Day 3): 865 ng/mL
